From US11591328B2 (XIAMEN BIOTIME BIOTECHNOLOGY CO., LTD., priority 2018, dated 2023) come the findings set out here.

By IC50 is commonly meant the concentration at which inhibition is half-maximal. The term AUC denotes the area under the concentration-time curve, a measure of exposure. Lower therefore signals less exposure. A word on the bioavailability: it is dose-corrected exposure relative to a reference, in per cent. One may read the Cmax as the highest concentration seen after dosing. For orientation: EC50 means the concentration that produces a half-maximal response. A lower EC50 goes with greater potency.

Series [1] has as its target c-Kit (Homo sapiens (Human), UniProt P10721). The experiment in a line: c-Kit kinase activity test (Caliper mobility shift assay). In kind it is biochemical. The procedure: (§1) Caliper mobility shift assay was used to determine the kinase activities of c-Kit, PDGFRα, PDGFRβ, and FLT-3.
(§2) The final concentration of the kinase and its corresponding substrate (ATP and peptide substrate P2 or P22) during the experiment is as follows:
(§3) Add 5 μL of compound (10% DMSO) at 5 times the final concentration of the reaction to a 384-well plate. Add 10 μL of 2.5×enzyme solution and incubate for 10 minutes at room temperature, then add 10 μL of 2.5×substrate (ATP and peptide substrate, P2 or P22). After incubating at 28° C. for 60 minutes, add 25 μL stop solution to stop the reaction. Read conversion rate data on Caliper EZ Reader II (Caliper Life Sciences). Convert the conversion rate into inhibition rate data (% inhibition rate=(max−sample conversion rate)/(max−min)×100). Where max refers to the conversion rate of the DMSO control, and min refers to the conversion rate of the control without enzyme activity. Draw a curve with compound concentration and inhibition rate on the abscissa and ordinate, use XLFit excel add-in version 4.3.1 software to fit the curve and calculate IC50.

The target of series [2] is PDGFRβ (Homo sapiens (Human), UniProt P09619). The experiment in a line: PDGFRβ kinase activity test (Caliper mobility shift assay). In kind it is biochemical. The procedure:
as §1, §2, §3

For series [3], the target named is FLT-3 (Homo sapiens (Human), UniProt P36888). Kind of series: FLT-3 kinase activity test (Caliper mobility shift assay). In kind it is biochemical. As for the experimental part: as §1, §2, §3
FLT-3, sequence (P36888 27-993): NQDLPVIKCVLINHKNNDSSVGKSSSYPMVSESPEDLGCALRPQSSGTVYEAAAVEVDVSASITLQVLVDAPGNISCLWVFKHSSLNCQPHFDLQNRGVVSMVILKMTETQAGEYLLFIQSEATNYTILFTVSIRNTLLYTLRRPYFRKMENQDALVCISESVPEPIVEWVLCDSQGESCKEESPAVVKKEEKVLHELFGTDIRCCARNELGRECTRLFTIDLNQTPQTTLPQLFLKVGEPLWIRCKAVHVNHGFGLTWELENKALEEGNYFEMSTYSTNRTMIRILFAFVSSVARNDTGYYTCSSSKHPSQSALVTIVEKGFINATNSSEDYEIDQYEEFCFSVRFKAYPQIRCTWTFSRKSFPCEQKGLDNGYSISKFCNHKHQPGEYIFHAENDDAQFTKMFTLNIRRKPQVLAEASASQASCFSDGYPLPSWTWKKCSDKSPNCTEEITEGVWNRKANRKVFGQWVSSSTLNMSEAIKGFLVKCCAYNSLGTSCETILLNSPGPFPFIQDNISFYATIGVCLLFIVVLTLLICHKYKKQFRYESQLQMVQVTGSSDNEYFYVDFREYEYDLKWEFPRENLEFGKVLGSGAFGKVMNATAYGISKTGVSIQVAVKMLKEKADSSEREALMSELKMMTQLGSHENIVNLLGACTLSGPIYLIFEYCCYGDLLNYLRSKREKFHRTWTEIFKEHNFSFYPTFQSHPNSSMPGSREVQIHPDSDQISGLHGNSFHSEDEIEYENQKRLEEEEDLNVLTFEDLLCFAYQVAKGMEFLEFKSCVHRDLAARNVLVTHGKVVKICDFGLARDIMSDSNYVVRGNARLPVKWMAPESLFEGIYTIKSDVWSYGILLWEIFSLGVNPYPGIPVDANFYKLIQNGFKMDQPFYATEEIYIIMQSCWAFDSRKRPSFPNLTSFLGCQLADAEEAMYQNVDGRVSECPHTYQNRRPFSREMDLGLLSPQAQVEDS
A short description of series [4]: Pharmacokinetic evaluation in CD-1 mice, gavage. In kind it is in vivo. As to conditions: 10 mg/kg, plasma; for bioavailability / Cmax / half-life: mouse, po; for half-life: read-out: T½ (converted). From the text:
Using mice as the test animals, the LC/MS/MS method was used to determine that the mice were intragastrically administered the compound of Example 1, the compound of Example 2, the compound of Example 3, the compound of Example 4, the compound of Example 10, and the compound of Example 14. Compound, the concentration of the drug in the plasma at different times after the compound of Example 26. Study the pharmacokinetic behavior of the compound of the present invention in mice and evaluate its pharmacokinetic characteristics.
The test animals were CD-1 mice, purchased from Shanghai Slack Laboratory Animal Co., Ltd.
Weigh a certain amount of drug, add 5% volume of DMSO or DMAc, 5% volume of PEG400 and 90% volume of normal saline to prepare 1.0 mg/mL colorless, clear and transparent liquid or uniformly dispersed suspension.
CD-1 mice were fasted overnight and then administered by gavage. The dosage was 10 mg/kg and the dosage was 10 mL/kg.
Gavage the mice before and after administration at 0.25, 0.5, 1.0, 2.0, 4.0, 6.0, 8.0, 24.0 hours to collect 0.1 mL of blood, place it in a K2-EDTA anticoagulation tube, and centrifuge at 3500 rpm for 10 minutes. Plasma, stored at −20° C.
To determine the content of the test compound in mouse plasma after gavage of different concentrations of drugs: take 20 uL of mouse plasma at each moment after administration, add propranolol and tolbutamide (each 100 ng/mL) 200 uL of acetonitrile solution, vortex for 5 minutes, centrifuge for 12 minutes (4000 rpm), and take 5 uL of the supernatant from the plasma sample for LC/MS/MS analysis.

Series [5] deals with CSF1R (Homo sapiens (Human), UniProt P07333). Kind of series: CSF1R kinase activity test (HTRF). In kind it is biochemical. As to conditions: ATP 8 μM. As for the experimental part: In a 384-well plate, add 10 nL of the test compound to each well with the Echo 550 sample loading device. […] Use this buffer to adjust the concentration of CSF1R to 0.02 ng/ul. Add 5 μL of buffer containing CSF1R to the 384-well plate after centrifugation at 1000 g for 30 seconds and incubate at room temperature for 10 minutes. […] The inhibition rate of each point is obtained by the following formula: […]
CSF1R, sequence (P07333 20-972, species assumed): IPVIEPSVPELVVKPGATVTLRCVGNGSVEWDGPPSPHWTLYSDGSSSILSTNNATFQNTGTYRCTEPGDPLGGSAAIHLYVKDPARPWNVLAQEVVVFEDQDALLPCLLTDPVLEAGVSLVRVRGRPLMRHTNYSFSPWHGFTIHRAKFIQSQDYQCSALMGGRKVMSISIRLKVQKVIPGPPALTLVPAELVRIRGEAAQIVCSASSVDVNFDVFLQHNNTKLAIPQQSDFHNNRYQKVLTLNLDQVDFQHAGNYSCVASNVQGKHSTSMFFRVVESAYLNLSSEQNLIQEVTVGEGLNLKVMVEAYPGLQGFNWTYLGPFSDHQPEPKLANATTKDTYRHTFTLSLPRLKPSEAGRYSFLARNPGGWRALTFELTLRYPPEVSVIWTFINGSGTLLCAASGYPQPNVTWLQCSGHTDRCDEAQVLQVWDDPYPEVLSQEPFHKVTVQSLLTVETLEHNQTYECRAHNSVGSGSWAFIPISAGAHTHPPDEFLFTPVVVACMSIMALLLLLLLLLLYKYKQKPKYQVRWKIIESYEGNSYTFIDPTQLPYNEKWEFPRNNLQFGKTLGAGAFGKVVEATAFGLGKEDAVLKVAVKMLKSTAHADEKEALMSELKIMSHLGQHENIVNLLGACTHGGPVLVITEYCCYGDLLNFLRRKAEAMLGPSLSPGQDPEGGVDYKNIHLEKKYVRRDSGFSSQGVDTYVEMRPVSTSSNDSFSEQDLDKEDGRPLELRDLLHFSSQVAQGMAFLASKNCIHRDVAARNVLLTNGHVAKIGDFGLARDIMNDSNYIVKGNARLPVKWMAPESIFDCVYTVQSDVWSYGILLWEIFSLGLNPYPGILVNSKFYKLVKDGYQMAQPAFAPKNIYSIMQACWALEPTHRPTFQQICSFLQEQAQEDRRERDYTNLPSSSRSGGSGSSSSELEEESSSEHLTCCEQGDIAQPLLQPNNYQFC
Wherein, Ratiopositive: the experimental positive control None; Ratiovehicle: is the test value of 0.1% DMSO. With the compound concentration and inhibition rate on the abscissa and ordinate, the curve was drawn, and the curve was fitted with Graphpad 5.0 software and the IC50 was calculated.

The target in series [6] is FMS (Homo sapiens (Human), UniProt P07333).
FMS, sequence (P07333 20-972): as the sequence (P07333 20-972, species assumed) above
Procedure: Place the culture plate in a cell incubator and incubate for 4 hours. […] Add the diluted recombinant human MCSF to a 24-well plate at 100 μL per well, mix quickly and incubate in an incubator for 4 minutes.

Each structure is given as a SMILES string. Some results are limits rather than exact numbers.

PDGFRβ, sequence (P09619 33-1106): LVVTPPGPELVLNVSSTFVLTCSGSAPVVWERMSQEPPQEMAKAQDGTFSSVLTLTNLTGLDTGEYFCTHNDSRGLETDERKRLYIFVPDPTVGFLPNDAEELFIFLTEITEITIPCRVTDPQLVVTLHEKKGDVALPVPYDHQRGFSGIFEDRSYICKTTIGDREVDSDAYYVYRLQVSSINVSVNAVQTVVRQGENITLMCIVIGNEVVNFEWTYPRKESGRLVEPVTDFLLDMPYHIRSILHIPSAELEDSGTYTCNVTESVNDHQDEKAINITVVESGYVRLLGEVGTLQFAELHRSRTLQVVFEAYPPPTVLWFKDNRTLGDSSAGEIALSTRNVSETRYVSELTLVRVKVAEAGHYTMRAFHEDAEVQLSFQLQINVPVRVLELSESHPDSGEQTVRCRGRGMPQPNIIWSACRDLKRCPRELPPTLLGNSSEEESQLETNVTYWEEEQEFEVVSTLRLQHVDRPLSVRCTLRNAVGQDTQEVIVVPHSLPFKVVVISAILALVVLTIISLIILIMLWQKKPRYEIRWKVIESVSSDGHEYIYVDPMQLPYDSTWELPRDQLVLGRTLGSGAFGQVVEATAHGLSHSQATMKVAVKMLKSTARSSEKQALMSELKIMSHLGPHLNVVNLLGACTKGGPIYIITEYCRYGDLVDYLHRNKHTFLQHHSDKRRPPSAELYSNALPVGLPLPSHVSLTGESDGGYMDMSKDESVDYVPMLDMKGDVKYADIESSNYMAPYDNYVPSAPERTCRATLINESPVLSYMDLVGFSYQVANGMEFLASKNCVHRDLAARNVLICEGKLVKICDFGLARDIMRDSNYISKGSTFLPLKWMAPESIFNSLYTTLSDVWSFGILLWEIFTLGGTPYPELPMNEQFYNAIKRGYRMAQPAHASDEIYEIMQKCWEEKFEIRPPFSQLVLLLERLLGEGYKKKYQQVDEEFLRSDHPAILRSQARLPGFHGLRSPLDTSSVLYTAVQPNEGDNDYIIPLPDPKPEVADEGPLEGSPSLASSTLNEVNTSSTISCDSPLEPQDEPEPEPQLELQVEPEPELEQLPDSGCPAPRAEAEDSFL
c-Kit, sequence (P10721 26-976): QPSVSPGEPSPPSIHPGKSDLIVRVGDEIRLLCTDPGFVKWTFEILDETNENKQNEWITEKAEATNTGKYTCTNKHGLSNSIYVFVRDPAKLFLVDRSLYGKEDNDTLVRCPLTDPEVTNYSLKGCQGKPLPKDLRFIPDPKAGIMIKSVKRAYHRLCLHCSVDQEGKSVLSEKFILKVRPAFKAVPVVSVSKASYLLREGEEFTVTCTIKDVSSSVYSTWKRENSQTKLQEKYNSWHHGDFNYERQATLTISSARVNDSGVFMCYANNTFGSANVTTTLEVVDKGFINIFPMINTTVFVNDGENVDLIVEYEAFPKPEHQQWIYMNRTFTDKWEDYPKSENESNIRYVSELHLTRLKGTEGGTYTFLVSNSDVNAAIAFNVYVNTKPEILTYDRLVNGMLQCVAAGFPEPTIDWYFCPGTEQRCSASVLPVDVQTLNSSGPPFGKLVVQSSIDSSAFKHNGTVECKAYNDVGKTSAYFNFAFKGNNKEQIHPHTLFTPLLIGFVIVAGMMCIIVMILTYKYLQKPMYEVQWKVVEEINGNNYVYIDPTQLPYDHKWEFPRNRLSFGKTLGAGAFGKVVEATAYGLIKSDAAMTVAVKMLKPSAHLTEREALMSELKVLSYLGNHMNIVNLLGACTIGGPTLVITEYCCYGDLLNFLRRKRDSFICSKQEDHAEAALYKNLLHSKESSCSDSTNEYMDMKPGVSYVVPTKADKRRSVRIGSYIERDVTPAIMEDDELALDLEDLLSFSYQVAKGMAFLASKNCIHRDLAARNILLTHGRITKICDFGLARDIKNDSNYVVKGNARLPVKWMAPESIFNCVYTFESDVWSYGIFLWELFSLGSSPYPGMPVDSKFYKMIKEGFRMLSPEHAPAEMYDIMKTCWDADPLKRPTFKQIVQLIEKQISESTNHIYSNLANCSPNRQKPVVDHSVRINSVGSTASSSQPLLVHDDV

With `Cn1cc(-c2cc(Oc3ccc(NC(=O)N4CCC5(CCC5)C4=O)nc3)ccn2)cn1` [Compound 1], in series [1], the IC50 stood at 3.5 nM. In series [2], the IC50 amounted to 2860 nM. The IC50 in series [3] was over 10000 nM. In addition, in series [4], the AUC turned out to be 26600 ng·h/mL, the bioavailability is 100%, the Cmax worked out at 3390 ng/mL and the half-life was 2.73 h.

In series [5], `Cn1cc(-c2cc(Oc3ccc(NC(=O)N4CCC5(CCCCC5)C4=O)nc3)ccn2)cn1` [Compound 2] had an IC50 of 6.2 nM. Moreover, in series [1], the IC50 amounted to 5.4 nM. In addition, the 50% inhibitory concentration (IC50) in series [2] stood at 1580 nM. In series [4], the AUC worked out at 6100 ng·h/mL, the bioavailability amounted to 71.5%, the peak level (Cmax) was 860 ng/mL and the half-life was 3.14 h.

Compound `Cn1cc(-c2cc(Oc3ccc(NC(=O)N4CCC5(CCCC5)C4=O)nc3)ccn2)cn1` [Compound 3] returned an IC50 in series [5] of 1.1 nM. The 50% inhibitory concentration (IC50) in series [1] was 2.6 nM. Moreover, the IC50 in series [2] came to 1620 nM. Besides, in series [4], the AUC came to 15800 ng·h/mL, the bioavailability was found to be 89.5%, the highest level (Cmax) was 3200 ng/mL and the half-life was 3.3 h.

Regarding `Cn1cc(-c2cc(Oc3ccc(NC(=O)N4CCC5(CCC(F)(F)CC5)C4=O)nc3)ccn2)cn1` [Compound 4], the IC50 in series [1] was 16 nM. The IC50 in series [2] is 783 nM. For the same compound, the IC50 in series [3] is over 10000 nM. Further, in series [4], the AUC was 38800 ng·h/mL, the bioavailability was 100%, the concentration peaked (Cmax) at 5270 ng/mL and the half-life is 2.64 h.

In the case of `Cn1cc(-c2cc(Oc3ccc(NC(=O)N4CCC5(CCOCC5)C4=O)nc3)ccn2)cn1` [Compound 5], in series [5], the IC50 came to 9.1 nM.

For the compound `Cn1cc(-c2cc(Oc3ccc(NC(=O)N4CCC5(CCCCC5(F)F)C4=O)nc3)ccn2)cn1` (stereo not shown) [Compound 6], the IC50 in series [5] was found to be 5.4 nM.

As for `Cn1cc(-c2cc(Oc3ccc(NC(=O)N4CCC5(CCCO5)C4=O)nc3)ccn2)cn1` (stereo not shown) [Compound 7], the half-inhibitory concentration (IC50) in series [5] stood at 2.7 nM.

In the case of `Cn1cc(-c2cc(Oc3ccc(NC(=O)N4CCC5(CCCC5(F)F)C4=O)nc3)ccn2)cn1` (stereo not shown) [Compound 8], 2.3 nM corresponded to half-maximal inhibition in series [5] (IC50).

In turn, `Cn1cc(-c2cc(Oc3ccc(NC(=O)N4CCC5(CCCCC5F)C4=O)nc3)ccn2)cn1` (stereo not shown) [Compound 9] came in with an IC50 in series [5] of 2.1 nM.

`Cn1cc(-c2cc(Oc3ccc(NC(=O)N4CCC5(CC5)C4=O)nc3)ccn2)cn1` [Compound 10]: the IC50 in series [5] came to 0.55 nM. This compound also registered an EC50 in series [6] of 4 nM. In series [4], the AUC worked out at 21300 ng·h/mL, the bioavailability worked out at 64%, the Cmax stood at 2240 ng/mL and the half-life is 5.18 h.

Compound `Cn1cc(-c2cc(Oc3ccc(NC(=O)N4CCC5(CCNCC5)C4=O)nc3)ccn2)cn1` [Compound 11] yielded an IC50 in series [5] of 300 nM.

In series [5], `CC(=O)N1CCC2(CC1)CCN(C(=O)Nc1ccc(Oc3ccnc(-c4cnn(C)c4)c3)cn1)C2=O` [Compound 12] gave an IC50 of 171 nM.

In series [5], `Cn1cc(-c2cc(Oc3ccc(NC(=O)N4CCC5(CCN(S(C)(=O)=O)CC5)C4=O)nc3)ccn2)cn1` [Compound 13] gave a half-inhibitory concentration (IC50) of 25 nM.

Take `Cc1nc(NC(=O)N2CCC3(CCC(F)(F)CC3)C2=O)ccc1Oc1ccnc(-c2cnn(C)c2)c1` [Compound 14]: in series [1], the IC50 amounted to 17 nM. For the same compound, the IC50 in series [2] is over 10000 nM. The IC50 in series [3] is over 10000 nM. Also, in series [4], the exposure (AUC) came out at 20300 ng·h/mL, the bioavailability turned out to be 67.3%, the Cmax was found to be 1400 ng/mL and the half-life is 5.91 h.

For the compound `Cc1nc(NC(=O)N2CCC3(CCC3)C2=O)ccc1Oc1ccnc(-c2cnn(C)c2)c1` [Compound 15], the IC50 in series [1] was 29 nM; in series [2], over 10000 nM; in series [3] it was over 10000 nM.

The compound `CCc1nc(NC(=O)N2CCC3(CCC(F)(F)CC3)C2=O)ccc1Oc1ccnc(-c2cnn(C)c2)c1` [Compound 16] gave a concentration for half-maximal inhibition (IC50) in series [5] of 6.4 nM.

On to `Cn1cc(-c2cc(Oc3ccc(NC(=O)N4CCC5(CCCC(O)C5)C4=O)nc3)ccn2)cn1` (stereo not shown) [Compound 17], for which, in series [5], the 50% inhibitory concentration (IC50) is 6.5 nM.

Consider `Cn1cc(-c2cc(Oc3ccc(NC(=O)N4CCC5(CCCC(F)(F)C5)C4=O)nc3)ccn2)cn1` (stereo not shown) [Compound 18], for which the IC50 in series [1] was determined as 8.4 nM; in series [2], 343 nM; in series [3], 8630 nM.

As to `Cn1cc(-c2cc(Oc3ccc(NC(=O)N4CCC5(CCC(=O)C5)C4=O)nc3)ccn2)cn1` (stereo not shown) [Compound 19], the IC50 was 11 nM in series [1], 719 nM in series [2] and over 10000 nM in series [3].

On to `O=C(Nc1ccc(Oc2ccnc(-c3cn[nH]c3)c2)cn1)N1CCC2(CCC(F)(F)CC2)C1=O` [Compound 21], for which the IC50 in series [1] worked out at 10.1 nM; in series [2], 7450 nM.

In series [5], `CN1CCC(c2ccc(-c3cc(Oc4ccc(NC(=O)N5CCC6(CCC(F)(F)CC6)C5=O)nc4)ccn3)cc2)CC1` [Compound 22] registered a concentration for half-maximal inhibition (IC50) of 6.7 nM.

`Cc1ncc(-c2cc(Oc3ccc(NC(=O)N4CCC5(CCC(F)(F)CC5)C4=O)nc3)ccn2)s1` [Compound 23]: it took 5.3 nM to reach half-maximal inhibition in series [5] (IC50).

For `Cn1cc(-c2cc(Oc3ccc(NC(=O)N4CCC5(CCCC(F)(F)C5)C4=O)nc3)ccn2)cn1` (stereo not shown) [Compound 24], in series [1], the IC50 came to 20 nM.

Regarding `Cn1cc(-c2cc(Oc3ccc(NC(=O)N4CCC5(CCC(F)(F)C5)C4=O)nc3)ccn2)cn1` (stereo not shown) [Compound 25], in series [1], the IC50 came out at 5 nM.

Consider `Cn1cc(-c2cc(Oc3ccc(NC(=O)N4CCC5(CC(F)(F)C5)C4=O)nc3)ccn2)cn1` [Compound 26], for which the IC50 in series [1] is 4.5 nM. The IC50 in series [2] stood at 2810 nM. Moreover, the IC50 in series [3] is over 10000 nM. Moreover, in series [4], the AUC was found to be 48300 ng·h/mL, the bioavailability was determined as 79%, the Cmax is 4490 ng/mL and the half-life is 6.72 h.
